Assay results taken from patent US3956328A, “S-triazolo(1,5-a)pyridine derivative” (Kyorin Seiyaku Kabushiki Kaisha, priority 1973, dated 1976).
Values joined by “and” are separate entries in the source; they are usually repeats but may differ in a detail not shown here. Identical values can stand only once. “Also recorded” adds a separate entry of the source.

Legend:
[1] = Acute oral toxicity in mice; assay type: in vivo; conditions: mouse, in vivo, po
Procedure: (§1) That of homochlorcyclyzine used as a standard drug is reported to be 353 mg/kg for mice.

ddN mice = experiment: Acute oral toxicity in mice; assay type: in vivo; conditions: acute oral
Procedure: as §1

[2] = Acute oral toxicity in rats; conditions: rat, in vivo
Procedure: as §1

[3] = system: BSA induced asthma in guinea pigs; experiment: Inhibitory action on BSA-induced (experimentally allergic) asthma attack in passively sensitized guinea pigs; assay type: in vivo, guinea pig; design: key to z1 (statistical value vs non treatment): Mann-Whitney U z statistic, treated vs non-treated; conditions: for p (statistical significance vs non treatment) / z1 (statistical value vs non treatment) / p (present compound vs homochlorcyclizine) / z2 (statistical value, present compound vs homochlorcyclizine): severity; for z1 (statistical value vs non treatment) / z2 (statistical value, present compound vs homochlorcyclizine): Mann and Whitney U test
Procedure: The present compound is studied on asthma attacks induced by the antigen-antibody reaction in guinea pigs. The guinea pigs are sensitized passively by the injection of 0.1 to 0.3 ml /100g body weight of rabbit antiserum to BSA (bovine serum albumin) into the ear vein. Forty six hours after passive sensitization, the guinea pigs are orally given the tested compounds. Two hours after oral administration, the asthma attack is provoked by an aerosol injection (0.1 ml/min.) of 1% BSA solution in physiological saline into the plastic chamber in which the testing guinea pig is placed. The symptoms of the asthma attack are observed for 10 minutes and scored on the following shock indices. The shock indices are examined by the shock grades, No. of collapsed guinea pigs/No. of used animals and survival rate.
The shock grades are as follows:
1 slight stimulation of expiration
2 stimulation of expiration (labored expiration)
3 attack of singultation
4 the strongest attack of collapse and struggle
but recovery from collapse within 5 minutes
5 recovery from collapse within 5 to 10 minutes
6 interruption of expiration to death within 10
*Statistical comparisons were carried out with the Mann and Whitneys' U
z1 : The statistical value between non treatment and each tested
z2 : The statistical value between the present compound and […]

[4] = system: histamine-induced asthma attack; experiment: Inhibitory action on histamine-induced asthma attack in guinea pigs; assay type: in vivo, guinea pig; conditions: for z1 (statistical value): Mann and Whitney U test
Procedure: Inhibitory actions on histamine-induced asthma attack: Male guinea pigs, of about 300 g body weight are used. Asthma attack is provoked by an aerosol of 0.2% histamine dihydrochloride solution in physiological saline for 10 minutes. The inhibitory actions are examined by shock grades, No. of collapsed guinea pigs/No. of provoked guinea pigs and survival rate. The tested compounds are orally given 2 hrs. prior to spraying of histamine solution.
A/B: No. of collapsed guinea pigs/ No. of provoked guinea pigs.
Statistical comparisons were carried out with the Mann and Whtineys' U

[5] = system: guinea pig tracheal chain strips; experiment: Anti histaminic action: histamine-induced contraction of guinea pig tracheal chain strips; conditions: 4×10^^-5 M; Tyrodes solution
[6] = system: anti acetylcholinergic action; experiment: Anti cholinergic action
[7] = system: heterologous PCA in guinea pigs; experiment: Heterologous passive cutaneous anaphylaxis (PCA) in guinea pigs; assay type: in vivo, guinea pig; conditions: 25 mg/kg po, 30 min. before challenge; rabbit antiserum to egg albumin
Procedure: Male guinea pigs are passively sensitized by the intradermal injection of rabbit antiserum to egg albumin and challenged by the intravenous injection of egg albumin 4 hrs. after the sensitization. The test compounds are orally given 30 min. before the challenge.

homologous PCA in rats [8] = experiment: Homologous PCA in Wistar rats; assay type: in vivo, rat (Wistar); conditions: for Inhibition % of extravasation of blue dye: Wistar, egg albumin, 30 min. before challenge, 72 hrs. after sensitization
Source text: (§2) Male wistar or SD rats are passively sensitized by Motas method (Immunology 7, 681, 1964) and challenged by the intravenous injection of wistar or SD rat antiserum to egg albumin or horse serum. The inhibitory action of the present compound on homologous PCA (induced by reaginlike, mast cell sensitizing antibody) is shown in Table 5.

homologous PCA in rats [9] = experiment: Homologous PCA in SD rats; assay type: in vivo, rat (SD)
Source text: as §2

guinea pig ileum = experiment: Schultz-Dale reaction in guinea pig ileum sensitized actively with egg albumin; conditions: actively-sensitized guinea pig ileum
Procedure: Male guinea pigs are actively sensitized and their ileum preparations are treated by Schultz-Dales method (J. Pharmacol. Exp. Ther., 4, 167, 1913). […] These preceeding pharmacological properties of the present compound are due to triazolo [1,5-a]pyridine.

[10] = antiserum 0.1 ml/100 g, 0.5 mg/kg p.o.
[11] = antiserum 0.1 ml/100 g, 1.0 mg/kg p.o.
[12] = antiserum 0.1 ml/100 g, 5.0 mg/kg p.o.
[13] = antiserum 0.2 ml/100 g, 5 mg/kg p.o.
[14] = antiserum 0.3 ml/100 g, 5 mg/kg p.o.
[15] = 2.50 mg/kg p.o. vs homochlorcyclizine (250 mg/kg (so in the source))

Compound: c1ccc(C(c2ccccc2)N2CCN(CCCc3nc4ccccn4n3)CC2)cc1 [the present compound, 2-[3-(4-diphenylmethyl-1-piperazinyl)propyl] -s-triazolo[1,5-a]pyridine]
- LD50 ([1]; female ddN mice, confidence limit 418-563 mg/kg): 485 mg/kg
- LD50 ([1]; male ddN mice, confidence limit 507-768 mg/kg): 625 mg/kg
- toxicity compared with homochlorcyclizine (ddN mice): lower toxicity than that of homochlorcyclizine
- LD50 ([2]; male wistar rats, confidence limit 1,05l-1, 790 mg/kg): 1370 mg/kg
- LD50 ([2]; po, female wistar rats): < 450 mg/kg
- severe asthma attack ([3]; 5 mg/kg dose): suppresses completely severe asthma attack
- A/B: No. of collapsed / No. of provoked guinea pigs [3, 10]: 3/6
- A/B: collapsed guinea pigs, percentage [3, 10]: 50%
- Survival rate (animals) [3, 10]: 5/6
- Survival rate, percentage [3, 10]: 83.3%
- A/B: No. of collapsed / No. of provoked guinea pigs [3, 11]: 4/10
- A/B: collapsed guinea pigs, percentage [3, 11]: 40%
- Survival rate (animals) [3, 11]: 10/10
- Survival rate, percentage [3, 11]: 100%
- A/B: No. of collapsed / No. of provoked guinea pigs [3, 12]: 0/6
- A/B: collapsed guinea pigs, percentage [3, 12]: 0%
- Survival rate (animals) [3, 12]: 6/6
- Survival rate, percentage [3, 12]: 100%
- A/B: No. of collapsed / No. of provoked guinea pigs [3, 13]: 0/6
- A/B: collapsed guinea pigs, percentage [3, 13]: 0%
- Survival rate (animals) [3, 13]: 6/6
- Survival rate, percentage [3, 13]: 100%
- A/B: No. of collapsed / No. of provoked guinea pigs [3, 14]: 0/5
- A/B: collapsed guinea pigs, percentage [3, 14]: 0%
- Survival rate (animals) [3, 14]: 5/5
- Survival rate, percentage [3, 14]: 100%
- incidences of asthma attack vs non treated ([3]; more than 0.5 mg/kg dose): inhibits significantly
- collapse ([3]; more than oral 5 mg/kg dose): completely inhibits collapse
- inhibitory action on asthma attack compared with homochlorcyclizine ([3]; oral): more significant; also recorded: prohibits the asthma attack more significantly than that of homochlorocyclizine
- shock death ([3]; oral 1 mg/kg): inhibits shock death
- p (statistical significance vs non treatment) [3, 10]: < 0.01
- z1 (statistical value vs non treatment) [3, 10]: 2.618
- p (statistical significance vs non treatment) [3, 11]: < 0.0001
- z1 (statistical value vs non treatment) [3, 11]: 4.032
- p (statistical significance vs non treatment) [3, 12]: < 0.001
- z1 (statistical value vs non treatment) [3, 12]: 3.686
- p (present compound vs homochlorcyclizine) [3, 13]: < 0.04
- p (statistical significance vs non treatment) [3, 13]: < 0.0001
- z1 (statistical value vs non treatment) [3, 13]: 4.112
- z2 (statistical value, present compound vs homochlorcyclizine) [3, 13]: 2.067
- p (present compound vs homochlorcyclizine) [3, 14]: < 0.05
- p (statistical significance vs non treatment) [3, 14]: < 0.001
- z1 (statistical value vs non treatment) [3, 14]: 3.26
- z2 (statistical value, present compound vs homochlorcyclizine) [3, 14]: 2.008
- A/B: No. of collapsed / No. of provoked guinea pigs ([4]; 0.156 mg/kg p.o.): 10/10
- A/B: collapsed guinea pigs, number in parentheses (percentage) ([4]; 0.156 mg/kg p.o.): 100
- Survival rate (animals) ([4]; 0.156 mg/kg p.o.): 0/10
- Survival rate, number in parentheses (percentage) ([4]; 0.156 mg/kg p.o.): 0
- A/B: No. of collapsed / No. of provoked guinea pigs ([4]; 0.313 mg/kg p.o.): 10/10
- A/B: collapsed guinea pigs, number in parentheses (percentage) ([4]; 0.313 mg/kg p.o.): 100
- Survival rate (animals) ([4]; 0.313 mg/kg p.o.): 10/10
- Survival rate, number in parentheses (percentage) ([4]; 0.313 mg/kg p.o.): 100
- significance of difference from non treatment 1 ([4]; 0.313 mg/kg p.o.): markedly significant difference
- z1 (statistical value) ([4]; 0.313 mg/kg p.o. vs non treatment 1): > 5
- A/B: No. of collapsed / No. of provoked guinea pigs ([4]; 0.625 mg/kg p.o.): 9/10
- A/B: collapsed guinea pigs, number in parentheses (percentage) ([4]; 0.625 mg/kg p.o.): 90
- Survival rate, number in parentheses (percentage) ([4]; 0.625 mg/kg p.o.): 100
- significance of difference from non treatment 1 ([4]; 0.625 mg/kg p.o.): markedly significant difference
- z1 (statistical value) ([4]; 0.625 mg/kg p.o. vs non treatment 1): > 5
- A/B: No. of collapsed / No. of provoked guinea pigs ([4]; 1.25 mg/kg p.o.): 4/10
- A/B: collapsed guinea pigs, number in parentheses (percentage) ([4]; 1.25 mg/kg p.o.): 40
- Survival rate (animals) ([4]; 1.25 mg/kg p.o.): 10/10
- Survival rate, number in parentheses (percentage) ([4]; 1.25 mg/kg p.o.): 100
- significance of difference from non treatment 1 ([4]; 1.25 mg/kg p.o.): markedly significant difference
- z1 (statistical value) ([4]; 1.25 mg/kg p.o. vs non treatment 1): > 5
- A/B: No. of collapsed / No. of provoked guinea pigs ([4]; 2.50 mg/kg p.o.): 1/11
- A/B: collapsed guinea pigs, number in parentheses (percentage) ([4]; 2.50 mg/kg p.o.): 9.1
- Survival rate (animals) ([4]; 2.50 mg/kg p.o.): 11/11
- Survival rate, number in parentheses (percentage) ([4]; 2.50 mg/kg p.o.): 100
- significance of difference from non treatment 1 ([4]; 2.50 mg/kg p.o.): markedly significant difference
- p (significant difference from homochlorcyclizine) [4, 15]: < 0.02
- z2 (statistical value) [4, 15]: 2.332
- z1 (statistical value) ([4]; 2.50 mg/kg p.o. vs non treatment 1): > 5
- A/B: No. of collapsed / No. of provoked guinea pigs ([4]; 10.0 mg/kg p.o.): 0/6
- A/B: collapsed guinea pigs, number in parentheses (percentage) ([4]; 10.0 mg/kg p.o.): 0
- Survival rate (animals) ([4]; 10.0 mg/kg p.o.): 6/6
- Survival rate, number in parentheses (percentage) ([4]; 10.0 mg/kg p.o.): 100
- p (significant difference from non treatment 2) ([4]; 10.0 mg/kg p.o.): < 0.0005
- p for z2 (significant difference from non treatment 1 (so in the source)) ([4]; 10.0 mg/kg p.o.): < 0.005
- z2 (statistical value) ([4]; 10.0 mg/kg p.o. vs non treatment 1 (so in the source)): 2.844
- z1 (statistical value) ([4]; 10.0 mg/kg p.o. vs non treatment 2): 3.321
- inhibition of asthma attack compared to non treatment and homochlorcyclizine ([4]; oral, 2 hrs. prior to histamine): markedly and significantly inhibits asthma attack
- inhibitory rate on histamine-induced contraction [5]: 124%
- anti acetylcholinergic action [6]: not found to have anti acetylcholinergic action
- Inhibition % of extravasation of blue dye [7]: 57.8%
- inhibition of reaginlike, mast cell sensitizing antibody-induced PCA (homologous PCA in rats [8]; Wistar rat, oral): markedly inhibits
- Inhibition % of extravasation of blue dye (homologous PCA in rats [8]; 25 mg/kg po): 64.3%
- Inhibition % of extravasation of blue dye (homologous PCA in rats [8]; 50 mg/kg po): 88.8%
- inhibition of reaginlike, mast cell sensitizing antibody-induced PCA (homologous PCA in rats [9]; SD rat, oral): markedly inhibits
- Inhibition % of extravasation of blue dye (homologous PCA in rats [9]; SD, horse serum, 100 mg/kg po, 3 hrs. before challenge, 48 hrs. after sensitization): 94.8% and 94%
- inhibition of Schultz-Dale reaction (guinea pig ileum): markedly inhibits Schultz-Dale reaction
